≈ marks a conversion by molar mass, not a printed value.
How the values were obtained:
[1] = Selectivity index, ratio of IC50 for human A549 cells to IC50 for Plasmodium falciparum; type: toxicity, cell-based; settings: read-out: Ratio IC50
Plasmodium falciparum [2] = assay: microbe, parasite or virus in culture; settings: NF54, 72 h
Plasmodium falciparum [3] = assay: microbe, parasite or virus in culture; settings: K1, 72 h
Plasmodium falciparum [4] = assay: microbe, parasite or virus in culture; settings: W2, 72 h
Description: Antiplasmodial activity against Plasmodium falciparum W2 after 72 hrs by SYBR I method

Plasmodium falciparum [5] = assay: microbe, parasite or virus in culture; settings: SB1, 72 h
Description: Antiplasmodial activity against Plasmodium falciparum SB1 after 72 hrs by SYBR I method

Plasmodium falciparum [6] = assay: microbe, parasite or virus in culture; settings: 7G8, 72 h
Description: Antiplasmodial activity against Plasmodium falciparum 7G8 after 72 hrs by SYBR I method

Plasmodium falciparum [7] = assay: microbe, parasite or virus in culture; settings: Dd2, 72 h
Description: Antiplasmodial activity against Plasmodium falciparum Dd2 after 72 hrs by SYBR I method

[8] = Clearance in human liver microsomes; type: ADME; settings: read-out: CLH
[9] = Clearance in rat hepatocytes assessed per 1E6 cells; type: ADME, cell-based, Hepatocyte; settings: read-out: CLH
[10] = Clearance in mouse liver microsomes; type: ADME; settings: read-out: CLH
Cytochrome P450 3A4 = Cytochrome P450 3A4 (Homo sapiens, UniProt P08684); assay: Inhibition of CYP3A4 (unknown origin); type: ADME
[11] = Aqueous solubility of the compound; type: physicochemical; settings: buffer
[12] = Fraction unbound in human plasma; type: ADME, cell-free
[13] = Lipophilicity, log D of the compound; type: physicochemical; settings: octanol/water
[14] = molecular target: Voltage-gated inwardly rectifying potassium channel KCNH2 (Homo sapiens, UniProt Q12809); assay: Inhibition of human ERG
Cytochrome P450 2C9 = Cytochrome P450 2C9 (Homo sapiens, UniProt P11712); assay: Inhibition of CYP2C9 (unknown origin); type: ADME
Cytochrome P450 2D6 = Cytochrome P450 2D6 (Homo sapiens, UniProt P10635); assay: Inhibition of CYP2D6 (unknown origin); type: ADME
Cytochrome P450 2C19 = Cytochrome P450 2C19 (Homo sapiens, UniProt P33261); assay: Inhibition of CYP2C19 (unknown origin); type: ADME
Cytochrome P450 1A2 = molecular target: T1, Cytochrome P450 1A2 (Homo sapiens, UniProt P05177); assay: Inhibition of CYP1A2 (unknown origin); type: ADME
T1 sequence (P05177 whole entry): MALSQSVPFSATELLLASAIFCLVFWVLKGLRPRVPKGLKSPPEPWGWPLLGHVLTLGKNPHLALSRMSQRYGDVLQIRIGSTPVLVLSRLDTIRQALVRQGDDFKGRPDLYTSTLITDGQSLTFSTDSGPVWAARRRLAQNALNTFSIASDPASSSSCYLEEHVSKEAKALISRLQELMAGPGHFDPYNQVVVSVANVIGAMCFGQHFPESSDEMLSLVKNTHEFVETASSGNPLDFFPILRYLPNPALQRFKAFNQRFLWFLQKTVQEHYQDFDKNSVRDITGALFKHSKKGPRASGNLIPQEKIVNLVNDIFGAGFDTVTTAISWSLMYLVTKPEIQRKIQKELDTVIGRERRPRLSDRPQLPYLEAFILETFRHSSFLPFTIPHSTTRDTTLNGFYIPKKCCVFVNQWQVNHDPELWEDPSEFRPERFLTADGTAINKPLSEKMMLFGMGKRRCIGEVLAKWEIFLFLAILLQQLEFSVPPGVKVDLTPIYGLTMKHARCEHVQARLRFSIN

Plasmodium falciparum [15] = assay: Antiplasmodial activity against Plasmodium falciparum Dd2 harboring DHODH mutant; type: functional, organism-based
Plasmodium falciparum [16] = assay: Antiplasmodial activity against Plasmodium falciparum Dd2 harboring CRT mutant; type: functional, organism-based
Plasmodium falciparum [17] = assay: Antiplasmodial activity against Plasmodium falciparum Dd2; type: functional, organism-based
Plasmodium falciparum [18] = assay: Antiplasmodial activity against Plasmodium falciparum Dd2 harboring CYTb-Qi mutant; type: functional, organism-based

Voltage-gated inwardly rectifying potassium channel KCNH2, sequence (Q12809 whole entry): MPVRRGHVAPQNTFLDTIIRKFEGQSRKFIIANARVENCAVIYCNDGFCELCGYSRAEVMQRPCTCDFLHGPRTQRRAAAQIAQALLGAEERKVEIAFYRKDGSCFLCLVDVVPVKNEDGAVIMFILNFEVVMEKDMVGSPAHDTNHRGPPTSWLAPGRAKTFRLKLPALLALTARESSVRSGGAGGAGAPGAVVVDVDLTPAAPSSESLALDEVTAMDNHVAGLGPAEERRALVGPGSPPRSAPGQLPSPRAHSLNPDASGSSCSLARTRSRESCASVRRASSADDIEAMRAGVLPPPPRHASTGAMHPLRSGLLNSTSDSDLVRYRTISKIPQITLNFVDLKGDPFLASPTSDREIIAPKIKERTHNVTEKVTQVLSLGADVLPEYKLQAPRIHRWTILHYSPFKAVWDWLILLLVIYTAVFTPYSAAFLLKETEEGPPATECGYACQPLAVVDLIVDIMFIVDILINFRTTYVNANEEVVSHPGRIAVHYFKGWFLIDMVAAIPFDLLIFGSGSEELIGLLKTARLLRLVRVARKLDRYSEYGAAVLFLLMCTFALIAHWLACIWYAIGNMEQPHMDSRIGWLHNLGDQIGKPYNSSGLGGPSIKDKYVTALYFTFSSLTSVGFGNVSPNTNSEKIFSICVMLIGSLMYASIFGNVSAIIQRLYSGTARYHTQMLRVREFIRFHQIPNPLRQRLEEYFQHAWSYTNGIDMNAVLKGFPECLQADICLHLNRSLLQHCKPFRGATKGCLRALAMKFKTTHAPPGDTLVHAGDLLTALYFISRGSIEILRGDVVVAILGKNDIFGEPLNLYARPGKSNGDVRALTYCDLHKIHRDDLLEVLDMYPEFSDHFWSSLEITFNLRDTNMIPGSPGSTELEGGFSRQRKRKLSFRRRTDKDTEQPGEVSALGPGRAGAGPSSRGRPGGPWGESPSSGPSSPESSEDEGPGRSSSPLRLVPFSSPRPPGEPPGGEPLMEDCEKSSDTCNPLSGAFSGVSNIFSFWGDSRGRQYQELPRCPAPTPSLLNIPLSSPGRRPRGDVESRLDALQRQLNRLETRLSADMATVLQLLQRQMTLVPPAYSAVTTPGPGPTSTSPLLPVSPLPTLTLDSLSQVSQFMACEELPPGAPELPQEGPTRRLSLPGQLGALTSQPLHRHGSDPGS
Cytochrome P450 2D6, sequence (P10635 whole entry): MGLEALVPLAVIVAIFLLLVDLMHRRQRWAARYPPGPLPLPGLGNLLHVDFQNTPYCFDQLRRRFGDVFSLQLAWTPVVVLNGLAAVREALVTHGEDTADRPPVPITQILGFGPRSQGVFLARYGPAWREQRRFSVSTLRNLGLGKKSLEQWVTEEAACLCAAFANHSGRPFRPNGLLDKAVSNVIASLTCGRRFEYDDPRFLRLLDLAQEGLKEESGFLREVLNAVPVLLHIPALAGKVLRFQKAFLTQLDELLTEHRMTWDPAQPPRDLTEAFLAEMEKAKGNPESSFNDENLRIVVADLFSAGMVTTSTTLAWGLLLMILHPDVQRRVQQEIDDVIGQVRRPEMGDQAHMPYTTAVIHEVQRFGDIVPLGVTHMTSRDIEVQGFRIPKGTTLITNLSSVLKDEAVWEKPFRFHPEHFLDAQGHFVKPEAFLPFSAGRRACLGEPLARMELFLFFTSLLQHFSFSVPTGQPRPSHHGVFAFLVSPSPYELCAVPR
Cytochrome P450 2C19, sequence (P33261 whole entry): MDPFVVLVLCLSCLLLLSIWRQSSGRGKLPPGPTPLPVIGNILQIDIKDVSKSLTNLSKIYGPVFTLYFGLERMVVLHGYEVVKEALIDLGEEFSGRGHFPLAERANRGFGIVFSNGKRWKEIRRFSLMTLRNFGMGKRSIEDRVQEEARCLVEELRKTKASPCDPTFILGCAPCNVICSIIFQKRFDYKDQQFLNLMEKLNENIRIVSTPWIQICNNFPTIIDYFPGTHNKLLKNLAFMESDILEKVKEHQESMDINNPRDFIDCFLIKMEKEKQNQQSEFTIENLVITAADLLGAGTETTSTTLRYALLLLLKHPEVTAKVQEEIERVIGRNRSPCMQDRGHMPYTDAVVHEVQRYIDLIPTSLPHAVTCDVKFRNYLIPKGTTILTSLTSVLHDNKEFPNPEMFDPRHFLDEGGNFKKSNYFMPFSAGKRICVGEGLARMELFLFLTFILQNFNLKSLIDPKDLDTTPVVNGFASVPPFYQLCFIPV
Cytochrome P450 3A4, sequence (P08684 whole entry): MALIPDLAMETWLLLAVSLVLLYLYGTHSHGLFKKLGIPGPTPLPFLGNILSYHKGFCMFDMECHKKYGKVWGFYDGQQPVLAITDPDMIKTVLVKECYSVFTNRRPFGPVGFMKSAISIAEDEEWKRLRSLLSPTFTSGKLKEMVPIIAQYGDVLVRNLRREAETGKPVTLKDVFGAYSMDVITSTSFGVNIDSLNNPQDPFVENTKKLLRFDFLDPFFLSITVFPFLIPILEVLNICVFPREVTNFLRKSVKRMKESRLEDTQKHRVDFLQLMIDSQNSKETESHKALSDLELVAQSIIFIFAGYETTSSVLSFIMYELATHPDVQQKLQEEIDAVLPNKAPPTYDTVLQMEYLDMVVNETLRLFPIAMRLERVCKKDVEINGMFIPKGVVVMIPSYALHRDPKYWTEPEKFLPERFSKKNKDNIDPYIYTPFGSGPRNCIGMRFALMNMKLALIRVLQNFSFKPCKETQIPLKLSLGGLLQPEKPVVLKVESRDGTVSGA
Cytochrome P450 2C9, sequence (P11712 whole entry): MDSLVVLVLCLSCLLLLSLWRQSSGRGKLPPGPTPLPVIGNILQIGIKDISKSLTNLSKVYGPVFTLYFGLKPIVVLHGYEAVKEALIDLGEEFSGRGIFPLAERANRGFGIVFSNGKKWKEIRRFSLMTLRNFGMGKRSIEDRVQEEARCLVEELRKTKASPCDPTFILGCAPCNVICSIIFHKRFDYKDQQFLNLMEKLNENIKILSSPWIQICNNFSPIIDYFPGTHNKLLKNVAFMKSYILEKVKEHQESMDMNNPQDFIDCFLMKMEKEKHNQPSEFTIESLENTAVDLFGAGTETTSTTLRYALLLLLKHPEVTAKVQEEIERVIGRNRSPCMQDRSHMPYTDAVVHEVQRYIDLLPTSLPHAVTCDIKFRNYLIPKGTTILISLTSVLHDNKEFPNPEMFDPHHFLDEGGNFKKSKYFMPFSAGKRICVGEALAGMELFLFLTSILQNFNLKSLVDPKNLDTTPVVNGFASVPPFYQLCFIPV

| SMILES | selectivity ratio [1] | IC50 (Plasmodium falciparum [2]) [nM] | IC50 (Plasmodium falciparum [3]) [nM] | microsomal CLint [8] [µL/min/mg] | hepatocyte CLint [9] [µL/min/1e6 cells] | IC50 [14] [nM] | also measured |
| --- | --- | --- | --- | --- | --- | --- | --- |
| Nc1nccn1CC(O)c1ccc(Cl)cc1Cl (racemic) | > 263 | 380 | 280 | – | – | – | – |
| Nc1ncccc1CC(O)c1cccc(Cl)c1Cl (racemic) | 294 | 180 | 50 | – | – | – | IC50 (Plasmodium falciparum [4]): 110 nM; IC50 (Plasmodium falciparum [5]): 472 nM; IC50 (Plasmodium falciparum [6]): 29.2 nM; IC50 (Plasmodium falciparum [7]): 410 nM |
| Nc1nc2ccccc2n1CC(O)c1ccc(Cl)cc1Cl (racemic) | – | 18 | 7 | 25 | 155 | – | IC50 (Plasmodium falciparum [4]): 11.6 nM; IC50 (Plasmodium falciparum [5]): 42.5 nM; IC50 (Plasmodium falciparum [6]): 4.09 nM; IC50 (Plasmodium falciparum [7]): 30 nM; microsomal CLint [10]: 213 µL/min/mg |
| Nc1nc2cccnc2n1CC(O)c1cccc(Cl)c1Cl (racemic) | 26 | 340 | 180 | 69 | 110 | > 33300 | IC50 (Cytochrome P450 3A4): > 30000 nM; solubility [11]: 26 µM (≈ 8.4 µg/mL); fraction unbound [12]: 0.118; logD [13]: 3; IC50 (Cytochrome P450 2C9): > 30000 nM; IC50 (Cytochrome P450 2D6): > 30000 nM; IC50 (Cytochrome P450 2C19): 10200 nM; IC50 (Cytochrome P450 1A2): 5200 nM |
| Nc1nc2ccc(C3CC3)nc2n1CC(O)c1ccc(Cl)cc1Cl (racemic) | > 260 | 96 | 22 | 47 | 94 | – | microsomal CLint [10]: > 130 µL/min/mg |
| Nc1nc2cnccc2n1CC(O)c1ccc(Cl)cc1Cl (racemic) | > 25 | > 2000 | > 500 | 5 | 14 | – | microsomal CLint [10]: 41 µL/min/mg |
| CCc1nc(N)nc(N)c1-c1ccc(Cl)cc1 [PYRIMETHAMINE] | – | 28.3 | 8560 | – | – | – | IC50 (Plasmodium falciparum [4]): 15400 nM; IC50 (Plasmodium falciparum [5]): 10.8 nM; IC50 (Plasmodium falciparum [6]): 10000 nM; IC50 (Plasmodium falciparum [7]): 13800 nM |
| Nc1nc2ccc(C(F)(F)F)cc2n1CC(O)c1ccc(C(F)(F)F)cc1Cl (racemic) | 94 | 53 | 10 | 9 | 31 | > 10500 | IC50 (Cytochrome P450 3A4): > 30000 nM; solubility [11]: 3 µM (≈ 1.27 µg/mL); fraction unbound [12]: < 0.01; logD [13]: > 4.6; IC50 (Plasmodium falciparum [4]): 24.1 nM; IC50 (Cytochrome P450 2C9): 27900 nM; IC50 (Plasmodium falciparum [5]): 121 nM; IC50 (Plasmodium falciparum [6]): 3.25 nM; IC50 (Cytochrome P450 2D6): 26300 nM; IC50 (Plasmodium falciparum [7]): 48.7 nM; IC50 (Cytochrome P450 2C19): 2700 nM; microsomal CLint [10]: 62 µL/min/mg; IC50 (Cytochrome P450 1A2): 29400 nM |
| Nc1nnc(C2CC2)n1CC(O)c1ccc(C(F)(F)F)cc1Cl (racemic) | > 50 | > 2000 | > 2000 | – | – | – | – |
| N#Cc1ccc2nc(N)n(CC(O)c3cccc(Cl)c3Cl)c2c1 (racemic) | – | 29 | 300 | 96 | 53 | – | – |
| CS(=O)(=O)c1ccc2nc(N)n(CC(O)c3cccc(Cl)c3Cl)c2c1 (racemic) | > 50 | > 2000 | > 2000 | 68 | 44 | > 33300 | – |
| NC1=Nc2ccccc2CN1CC(O)c1ccc(Cl)cc1Cl (racemic) | 141 | 177 | 25 | – | – | – | – |
| O=C1C(O)=C([C@H]2CC[C@H](c3ccc(Cl)cc3)CC2)C(=O)c2ccccc21 [ATOVAQUONE] | – | 1.36 | 2.26 | – | – | – | IC50 (Plasmodium falciparum [4]): 1.16 nM; IC50 (Plasmodium falciparum [5]): > 2000 nM; IC50 (Plasmodium falciparum [6]): 2.32 nM |
| Cc1cn(CC(O)c2ccc(Cl)cc2Cl)c(N)n1 (racemic) | – | 380 | 250 | – | – | – | – |
| COC1=C2C[C@@H](C)C[C@H](OC)[C@H](O)[C@@H](C)/C=C(\C)[C@H](OC(N)=O)[C@@H](OC)/C=C\C=C(/C)C(=O)NC(=CC1=O)C2=O [GELDANAMYCIN] | – | – | – | – | – | – | IC50 (Plasmodium falciparum [15]): 257 nM; IC50 (Plasmodium falciparum [16]): 204 nM; IC50 (Plasmodium falciparum [17]): 176 nM; IC50 (Plasmodium falciparum [18]): 169 nM |
| Nc1nc2ccc(C(=O)NC3CC3)nc2n1CC(O)c1ccc(Cl)cc1Cl (racemic) | > 10 | > 2000 | > 500 | – | – | – | – |
| Nc1nc(-c2ccc(F)cc2)cn1CC(O)c1ccc(C(F)(F)F)cc1Cl (racemic) | 72 | 140 | 60 | – | – | 25000 | – |
| Nc1nc2ccc(OC3CNC3)nc2n1CC(O)c1ccc(C(F)(F)F)cc1Cl (racemic) | > 50 | > 2000 | > 500 | < 4 | 14 | > 33300 | – |
| Cc1nc(N)n(CC(O)c2ccc(Cl)cc2Cl)c1C (racemic) | 220 | 300 | 200 | – | – | > 33300 | – |
| Nc1nc2ccc(NCC(F)(F)F)nc2n1CC(O)c1ccc(Cl)cc1Cl (racemic) | 375 | 40 | 14 | 17 | 198 | 3500 | microsomal CLint [10]: 87 µL/min/mg |
| Cc1cc(Cl)ccc1C(O)Cn1ccnc1N (racemic) | > 50 | > 2000 | > 2000 | – | – | – | – |
| Nc1nnnn1CC(O)c1c(Cl)cccc1Cl (racemic) | > 50 | > 2000 | > 2000 | – | – | – | – |
| Nc1nccn1CC(O)c1ccc(Cl)cc1F (racemic) | > 50 | > 2000 | > 2000 | – | – | 60000 | – |
| Nc1nc2ccc(Cl)cc2n1CC(O)c1cccc(Cl)c1Cl (racemic) | 2.3 | 320 | 40 | 49 | 22 | > 33300 | – |
| Nc1nc2ccccc2n1-c1ccccc1O | 1190 | 84 | 54 | – | – | – | IC50 (Plasmodium falciparum [4]): 260 nM; IC50 (Plasmodium falciparum [5]): 164 nM; IC50 (Plasmodium falciparum [6]): 66.1 nM; IC50 (Plasmodium falciparum [7]): 329 nM |
| Nc1nc(C2CC2)cn1CC(O)c1ccc(Cl)cc1Cl (racemic) | 241 | 120 | 70 | – | – | 4500 | – |
| Nc1nccn1CC(O)c1cccc(Cl)c1Cl (racemic) | – | 350 | 230 | – | – | – | – |
